Article PMC4470081, “Characterization of glutathione transferases involved in the pathogenicity of Alternaria brassicicola” (BMC Microbiology, 2015)

Legend:
Format in all cases: biochemical, Alternaria brassicicola
AbGTT1.2 [1] = tested on: T1, AbGTT1.2; test: peroxidase, glutathione reductase/NADPH coupled, […] nm; details: 3 mM GSH (table note; methods say 2 mM), Tris-HCl pH 8.0
T1 construct: E. coli BL21(DE3) pRARE

AbUre2pB1 [2] = tested on: T2, AbUre2pB1; test: as above; details: 3 mM GSH (table note; methods say 2 mM), Tris-HCl pH 8.0
T2 construct: E. coli BL21(DE3) pRARE

AbGSTFuA1 [3] = tested on: T3, AbGSTFuA1; test: GSH transferase, absorbance […] nm; details: 3 mM GSH (table note; methods say 5 mM), pH 6.5
T3 construct: E. coli BL21(DE3) pRARE

AbGSTFuA1 [4] = tested on: T3, AbGSTFuA1; test: GSH transferase, absorbance […] nm; details: 3 mM GSH (table note; methods say 5 mM), phosphate pH 7.5
AbUre2pB1 [5] = tested on: T2, AbUre2pB1; test: GSH transferase, absorbance […] nm; details: 3 mM GSH (table note; methods say 5 mM), phosphate pH 7.5
AbGTT1.2 [6] = tested on: T1, AbGTT1.2; test: GSH transferase, absorbance […] nm; details: 3 mM GSH (table note; methods say 5 mM), phosphate pH 7.5

CC(C)(OO)c1ccccc1 [Cu-OOH]
Km (AbGTT1.2 [1]): 120 ± 40 µM
Km (AbUre2pB1 [2]): 770 ± 60 µM

S=C=NCc1ccccc1 [Bz-ITC]
Km (AbGSTFuA1 [3]): 180 ± 30 µM

S=C=NCCc1ccccc1 [Ph-ITC]
Km (AbGSTFuA1 [3]): 110 ± 20 µM

C=CCN=C=S [Al-ITC]
Km (AbGSTFuA1 [3]): 120 ± 20 µM

O=[N+]([O-])c1ccc(Cl)c([N+](=O)[O-])c1 [CDNB, 1-chloro-2,4-dinitrobenzene]
Km (AbGSTFuA1 [4]): 400 ± 20 µM
Km (AbUre2pB1 [5]): 5010 ± 400 µM
Km (AbGTT1.2 [6]): 1820 ± 330 µM
